Laboratory results as given in patent US20140011755A1, “Cardiac Glycosides for Treating Autoimmune Disease” (Department of Veterans Affairs, priority 2010, published 2014).

Key:
[1] = CHCI3/16% aqueous methanol (MeOH); cited from earlier work
[2] = system: naïve CD4+ T cells, Th17 differentiation; experiment: Th17 T cell differentiation in co-culture with pre-treated CIA B cells; type: cell-based, mice; conditions: B cells treated 33 nM for 30 minutes, washed, co-culture 72 hr in Th17 differentiation media
Description: FIG. 24. […] At endpoint, IL-17 cytokine levels were quantified by ELISA (R&D Systems). (B) IL-10 cytokine production was also assessed in each sample by ELISA (eBiosciences). Data represent the average of triplicates and error bars represent the SEM. Statistical significance was determined by the students t-test.
It is known that B cells can regulate T cell differentiation and in many states of autoimmune disease, an imbalance of Th1, Th2, and Th17 T cell populations exist. […] We performed studies to determine the regulatory effector function of B cells pre-treated with cardiac glycoside on T cell differentiation. B cells blocked naïve CD4^+ T cell differentiation into Th17 cells when cardiac glycoside was administered to B cells 30 minutes prior to co-culture with T cells (FIG. 24 A). Additionally, the pre-treatment of B cells with cardiac glycoside inhibited Th17 differentiation in a STAT3-dependent manner (FIG. 25A). […] Cardiac glycosides can be administered to patients to induce IL-10 expressing B cells and to modulate T cell differentiation and increase numbers of Tregs which reduce autoimmune disease progression.

In the case of C[C@H]1O[C@@H](O[C@H]2[C@@H](O)C[C@H](O[C@H]3[C@@H](O)C[C@H](O[C@H]4CC[C@@]5(C)[C@H](CC[C@@H]6[C@@H]5CC[C@]5(C)[C@@H](C7=CC(=O)OC7)CC[C@]65O)C4)O[C@@H]3C)O[C@@H]2C)C[C@H](O)[C@@H]1O [Digitoxin, digitoxin], the “Partition Coefficient” value [1] is listed as 96.5 and the “Th17 cell differentiation (IL-17 by ELISA)” value [2] is listed as “down-regulates Th17 cell differentiation”.
